Results published in US20250345329A1, “HETEROARYL DERIVATIVE COMPOUND AND USES THEREOF” (VORONOI, INC., priority 2022, published 2025).

Target: T1, human EGFR (d746-750/T790M/C797S) (Homo sapiens, UniProt P00533, C797S/DEL746-750/T790M)
T1 construct: human EGFR (d746-750/T790M/C797S) (668-end, SignalChem); purchased SignalChem
Assay: EGFR C797S enzyme inhibition activity (ADP-Glo kinase assay)
Format: biochemical
Details: purified enzyme 3 ng, ATP 5 μM, 25° C., 1 hour, luminescence; read-out: EGFR DTC Enzyme IC50
Procedure: <Experimental Example 1> Evaluation of EGFR C797S Enzyme Inhibition Activity
The compounds according to the present invention were reacted together with purified human EGFR (d746-750/T790M/C797S) (668-end, SignalChem) enzyme and a specific substrate and evaluated for enzyme inhibitory activity as described below. The reaction buffer consisted of 40 mM Tris-HCl pH 7.4, 20 mM MgCl2, 0.5 mg/ml BSA, and 50 μM DTT, and all reactions of the test substances were performed in reaction buffers. The compounds were serially diluted in 12 steps from a 10 mM DMSO stock, and the enzyme activity was measured at the final compound concentrations of 10, 3, 1, 0.3, 0.1, 0.03, 0.01, 0.003, 0.001, 0.0003, 0.0001, and 0 μM. In the assay, human EGFR (d746-750/T790M/C797S) (3 ng) enzyme was reacted with purified ATP (5 μM) and enzyme substrate (0.2 μg) at 25° C. for 1 hour, and the enzyme activity was determined using the in vitro ADP-Glo™ kinase assay (Promega). The enzyme activity inhibition was measured via luminescence by reacting the enzyme activity reaction solution, ADP-Glo reaction solution, and enzyme activity detection solution in a 2:2:1 ratio. Based on the luminescence of the enzyme activity of the solvent control group that was not treated with the compound, the degree of the enzyme activity inhibition depending on the treatment concentration of each compound was calculated, wherein the concentration of each compound that inhibited the enzyme activity by 50% was determined as the IC50 (nM) value, which was obtained using GraphPad Prism 8.4.3 (GraphPad software Inc., San Diego).

T1 sequence (P00533 with tags, fused parts or gaps DEL746-750/T790M/C797S): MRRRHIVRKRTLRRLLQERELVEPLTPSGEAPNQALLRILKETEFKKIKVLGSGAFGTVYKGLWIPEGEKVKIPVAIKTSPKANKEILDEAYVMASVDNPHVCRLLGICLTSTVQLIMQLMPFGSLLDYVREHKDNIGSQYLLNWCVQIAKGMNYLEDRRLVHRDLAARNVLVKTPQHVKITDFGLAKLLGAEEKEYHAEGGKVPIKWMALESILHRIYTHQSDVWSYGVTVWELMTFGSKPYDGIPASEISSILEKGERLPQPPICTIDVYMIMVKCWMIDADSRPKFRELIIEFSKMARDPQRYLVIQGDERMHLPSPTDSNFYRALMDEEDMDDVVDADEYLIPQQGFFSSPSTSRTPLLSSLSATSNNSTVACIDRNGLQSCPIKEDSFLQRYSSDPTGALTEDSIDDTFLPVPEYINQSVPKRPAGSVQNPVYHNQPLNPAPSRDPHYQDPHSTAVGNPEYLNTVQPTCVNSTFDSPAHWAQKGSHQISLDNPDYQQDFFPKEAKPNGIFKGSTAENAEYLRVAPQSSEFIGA

Which IC50 does the source give for `CC(C)Nc1cc(Nc2ccnc(-c3cnn(S(=O)(=O)C4CC4)c3)n2)ncc1C(=O)NCCC(C)c1ccccc1` (stereo not shown) [Example 54, 6-((2-(1-(cyclopropylsulfonyl)-1H-pyrazol-4-yl)pyrimidin-4-yl)amino)-4-(isopropylamino)-N-(3-phenylbutyl)nicotina-mide] here?
Its IC50 is 50 to 500 nM.

With `CO[C@H]1CCN(c2nccc(Nc3cc(NC4CCOC4)c(C(=O)N4CC(CS(C)(=O)=O)C4)cn3)n2)C[C@H]1F` (relative stereo) [Example 14, (6-((2-(cis-3-fluoro-4-methoxypiperidin-1-yl)pyrimidin-4-yl)amino)-4-((tetrahydrofuran-3-yl)amino)pyridin-3-yl)(3-((methylsulfonyl)meth-yl)azetidin-1-yl)methanone] as the compound, how does the IC50 read?
Its IC50 is under 50 nM.

`CNCCCNC(=O)c1cnc(Nc2ccnc(-c3cnn(S(=O)(=O)C4CC4)c3)n2)cc1NC(C)C` [Example 60, 6-((2-(1-(cyclopropylsulfonyl)-1H-pyrazol-4-yl)pyrimidin-4-yl)amino)-4-(isopropoylamino)-N-(3-(methylamino)propyl) nicotinamide] was tested. Which IC50 did it give?
The IC50 was under 50 nM.

Which IC50 does the source give for `CC(C)Nc1cc(Nc2ccnc(-c3cnn(S(=O)(=O)C4CC4)c3)n2)ncc1C(=O)N1CC(N(C)C)C1` [Example 37, (6-((2-(1-(cyclopropylsulfonyl)-1H-pyrazol-4-yl)pyrimidin-4-yl)amino)-4-(isopropylamino)pyri-din-3-yl)(3-(dimethylamino)azeti-din-1-yl)methanone] here?
The IC50 was under 50 nM.

For `CC(C)Nc1cc(Nc2ccnc(N3CCNC(=O)C3)n2)ncc1C(=O)N1CC(CS(C)(=O)=O)C1` [Example 45, 4-(4-((4-(isopropylamino)-5-(3-((methylsulfonyl)meth-yl)azetidine-1-carbonyl)pyridin-2-yl)amino)pyrimidin-2-yl)piperazin-2-one], which IC50 is on record?
The IC50 was 50 to 500 nM.

`CO[C@H]1CCN(c2nccc(Nc3cc(NC(C)C)c(C(=O)N4CC(CS(C)(=O)=O)C4)cn3)n2)C[C@H]1F` (relative stereo) [Example 2, (6-((2-(cis-3-fluoro-4-methoxypiperidin-1-yl)pyrimidin-4-yl)amino)-4-(isopropylamino)pyri-din-3-yl)(3-((methylsulfonyl)meth-yl)azetidin-1-yl)methanone] was tested. Which IC50 did it give?
The IC50 was under 50 nM.

With `CC(C)Nc1cc(Nc2ccnc(-c3cnn(S(=O)(=O)C4CC4)c3)n2)ncc1C(=O)Nc1cc(N2CCC(N3CCN(C)CC3)CC2)cc(S(C)(=O)=O)c1` [Example 75, 6-((2-(1-(cyclopropylsulfonyl)-1H-pyrazol-4-yl)pyrimidin-4-yl)amino)-4-(isopropylamino)-N-(3-(4-(4-methylpiperazin-1-yl)piperidin-1-yl)-5-(methyl-sulfonyl)phenyl) nicotinamide] as the compound, how does the IC50 read?
The IC50 was under 50 nM.

Which IC50 does the source give for `CC(C)Nc1cc(Nc2ccnc(N3CCN(C)CC3)n2)ncc1C(=O)N1CC(CS(C)(=O)=O)C1` [Example 11, (4-(isopyropylamino)-4-((2-(4-methylpiperazin-1-yl)pyrimidin-4-yl)amino)pyridin-3-yl)(3-((methylsulfonyl)meth-yl)azetidin-1-yl)methanone] here?
The IC50 was 50 to 500 nM.

Which IC50 does the source give for `CC(C)Nc1cc(Nc2ccnc(-c3cnn(S(=O)(=O)C4CC4)c3)n2)ncc1NC(=O)Cc1ccc(C#N)cc1` [Example 85, 2-(4-cyanophenyl)-N-(6-((2-(1-(cyclopropylsulfonyl)-1H-pyrazol-4-yl)pyrimidin-4-yl)amino)-4-(isopropylamin)pyri-din-3-yl)acetamide] here?
The IC50 was under 50 nM.

For `CC(C)Nc1cc(Nc2ccnc(N3CCN(S(C)(=O)=O)CC3)n2)ncc1C(=O)N1CC(CS(C)(=O)=O)C1` [Example 44, (4-(isopropylamino)-6-((2-(4-(methylsulfonyl)piper-azin-1-yl)pyrimidin-4-yl)amino)pyridin-3-yl)(3-((methylsulfonyl)meth-yl)azetidin-1-yl)methanone], which IC50 is on record?
The IC50 was 50 to 500 nM.

Which IC50 does the source give for `CC(C)Nc1cc(Nc2ccnc(-c3cnn(S(=O)(=O)C4CC4)c3)n2)ncc1C(=O)NCCc1ccccc1` [Example 52, 6-((2-(1-(cyclopropylsulfonyl)-1H-pyrazol-4-yl)pyrimidin-4-yl)amino)-4-(isopropylamino)-N-phenethylnicotinamide] here?
The IC50 was under 50 nM.

For `Cn1cc(Nc2cc(Nc3ccnc(-c4cnn(S(=O)(=O)C5CC5)c4)n3)ncc2C(=O)N2CC(CS(C)(=O)=O)C2)cn1` [Example 22, (6-((2-(1-(cyclopropylsulfonyl)-1H-pyrazol-4-yl)pyrimidin-4-yl)amino)-4-((1-methyl-1H-pyrazol-4-yl)amino)pyridin-3-yl)(3-((methylsulfonyl)meth-yl)azetidin-1-yl)methanone], which IC50 is on record?
The IC50 was 50 to 500 nM.

With `CNCCCNC(=O)c1cnc(Nc2ccnc(-c3cn[nH]c3)n2)cc1NC(C)C` [Example 59, 6-((2-(1H-pyrazol-4-yl)pyrimidin-4-yl)amino)-4-(isopropylamino)-N-(3-(methylamino)propyl) nicotinamide] as the compound, how does the IC50 read?
Its IC50 is under 50 nM.

`CC(C)Nc1cc(Nc2ccnc(-c3cnn(S(=O)(=O)C4CC4)c3)n2)ncc1C(=O)NC1CCN(S(C)(=O)=O)CC1` [Example 69, 6-((2-(1-(cyclopropylsulfonyl)-1H-pyrazol-4-yl)pyrimidin-4-yl)amino)-4-(isopropylamino)-N-(1-(methylsulfonyl)piper-idin-4-yl)nicotinamide] was tested. Which IC50 did it give?
Its IC50 is under 50 nM.

With `CC(C)Nc1cc(Nc2ccnc(-c3cn[nH]c3)n2)ncc1C(=O)NC1CCNC1` (stereo not shown) [Example 67, 6-((2-(1H-pyrazol-4-yl)pyrimidin-4-yl)amino)-4-(isopropylamino)-N-(pyrrolidin-3-yl)nicotinamide] as the compound, how does the IC50 read?
Its IC50 is under 50 nM.

For `CC(C)Nc1cc(Nc2ccnc(-c3cnn(S(=O)(=O)C4CC4)c3)n2)ncc1C(=O)NC[C@H]1CCCN1` [Example 77, (R)-6-((2-(1-(cyclopropylsulfonyl)-1H-pyrazol-4-yl)pyrimidin-4-yl)amino)-4-(isopropylamino)-N-(pyrrolidin-2-ylmethyl)nicotinamide], which IC50 is on record?
The IC50 was under 50 nM.

How did the IC50 turn out when `CC(C)Nc1cc(Nc2ccnc(-c3cnn(S(=O)(=O)C4CC4)c3)n2)ncc1C(=O)N(C)CC#N` [Example 28, N-(cyanomethyl)-6-((2-(1-(cyclopropylsulfonyl)-1H-pyrazol-4-yl)pyrimidin-4-yl)amino)-4-(isopropylamino)-N-methylnicotinamide] was run?
The IC50 was 50 to 500 nM.

How did the IC50 turn out when `C[C@H]1CCOc2c(cnn2C)-c2nccc(n2)Nc2cc(c(C(=O)O)cn2)N1` [Example 117, (S)-1^1,6-dimethyl-1^1H-9-oxa-3,5-diaza-2(2,4)-pyrimidina-4(2,4)-pyridina-1(4,5)-pyrazolacyclo-nonaphane-4^5-carboxylic acid] was run?
Its IC50 is under 50 nM.

With `CC(C)Nc1cc(Nc2ccnc(-c3cnn(S(=O)(=O)C4CC4)c3)n2)ncc1C(=O)N(C)CCN(C)C` [Example 26, 6-((2-(1-(cyclopropylsulfonyl)-1H-pyrazol-4-yl)pyrimidin-4-yl)amino)-N-(2-(dimethylamino)ethyl)-4-(isopropylamino)-N-methylnicotinamide] as the compound, how does the IC50 read?
Its IC50 is 50 to 500 nM.

Which IC50 does the source give for `C[C@H]1CCOc2c(cnn2C)-c2nccc(n2)Nc2cc(c(C(=O)Nc3cccc(C(F)(F)F)c3)cn2)N1` [Example 101, (S)-1^1,6-dimethyl-N-(3-(trifluoromethyl)phe-nyl)-1^1H-9-oxa-3,5-diaza-2(2,4)-pyrimidina-4(2,4)-pyridina-1(4,5)-pyrazolacyclo-nonaphane-4^5-carboxamide] here?
Its IC50 is 50 to 500 nM.

Which IC50 does the source give for `C[C@@H]1CCOc2c(cnn2C)-c2nccc(n2)Nc2cc(c(C(=O)NCC#N)cn2)N1` [Example 84, (R)-N-(cyanomethyl)-1^1,6-dimethyl-1^1H-9-oxa-3,5-diaza-2(2,4)-pyrimidina-4(2,4)-pyridina-1(4,5)-pyrazolacyclo-nonaphane-4^5-carboxamide] here?
The IC50 was under 50 nM.

How did the IC50 turn out when `CC(C)Nc1cc(Nc2ccnc(-c3cnn(CC4CC4)c3)n2)ncc1C(=O)N1CC(CS(C)(=O)=O)C1` [Example 43, (6-((2-(1-(cyclopropylmethyl)-1H-pyrazol-4-yl)pyrimidin-4-yl)amino)-4-(isopropylamino)pyri-din-3-yl)(3-((methylsulfonyl)meth-yl)azetidin-1-yl)methanone] was run?
The IC50 was under 50 nM.
